Measurements reported in article PMC2833271 (Neuropsychopharmacology : official publication of the …, 2009).
“Also recorded” adds a separate entry of the source. Where two headings read alike, the source gives them in different places.

What was measured:
[1] = system: MAO-A; conditions: in human brain; ref data on file, CeNeRx Biopharma, Cary, NC; cited from earlier work
[2] = target: T1, brain MAO-A (Homo sapiens, UniProt P21397); experiment: Emax model of brain MAO-A inhibition vs plasma CX157 concentration; type: in vivo
T1 sequence (P21397 1-527): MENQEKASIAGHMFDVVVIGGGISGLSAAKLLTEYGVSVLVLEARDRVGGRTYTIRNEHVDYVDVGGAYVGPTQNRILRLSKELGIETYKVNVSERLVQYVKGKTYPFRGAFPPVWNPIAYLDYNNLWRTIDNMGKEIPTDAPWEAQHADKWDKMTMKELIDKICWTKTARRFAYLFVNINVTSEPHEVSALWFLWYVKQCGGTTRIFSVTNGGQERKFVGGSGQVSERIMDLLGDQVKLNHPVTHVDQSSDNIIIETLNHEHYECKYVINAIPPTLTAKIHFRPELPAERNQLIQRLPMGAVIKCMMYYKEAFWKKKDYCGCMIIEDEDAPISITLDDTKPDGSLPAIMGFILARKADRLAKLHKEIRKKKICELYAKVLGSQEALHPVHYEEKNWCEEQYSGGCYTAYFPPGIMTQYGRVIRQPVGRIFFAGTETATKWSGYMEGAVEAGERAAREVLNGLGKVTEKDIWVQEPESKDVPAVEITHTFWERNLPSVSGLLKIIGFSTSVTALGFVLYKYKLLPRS

[3] = target: T1, brain MAO-A; experiment: PET imaging of [11C]clorgyline binding; type: in vivo
[4] = Adverse events in study subjects; type: in vivo, human; conditions: 15 normal men, oral CX157 20-80 mg
[5] = Plasma CX157 concentration and pharmacokinetics; type: in vivo, human; conditions: for concentration at 2 h / concentration at 5 h / concentration at 12 h / concentration at 8 h: oral; for Plasma CX157: single subject value
[6] = target: T1, brain MAO-A; conditions: [11C]harmine PET; ref Bergström et al, 1997; cited from earlier work

O=S1(=O)c2ccc(F)cc2Oc2cc(OCC(F)(F)F)ccc21 [CX157, 3-fluoro-7-(2,2,2-trifluoroethoxy)phenoxathiin-10,10-dioxide]
MAO-A inhibiting activity [1]: 3.3 nM
EC50 [2]: 55.4 nM
n (exponent of sigmoid Emax model) ([2]; Emax model fit, all subjects, doses and time points): 1.0
Emax ([2]; read-out: Emax (maximum inhibiting response)): 80.7%
inhibition of MAO-A ([3]; 40 mg CX157, first two subjects): ~ 60%
inhibition of [11C]clorgyline binding to brain MAO-A ([3]; 60 and 80 mg oral doses, 2 h after administration): 47–72%
recovery of brain MAO-A activity ([3]; 24 h post drug (single dose, 40 mg)): recovered completely; also recorded: Complete recovery to baseline values
inhibition at 40 mg ([3]; read-out: % MAO-A inhibition (inhibition of [11C]clorgyline binding, λk3), multi-dose 40 mg BID 7 days, n = 3, 12 h post dose): 23.1 ± 3.7%
inhibition at 40 mg ([3]; read-out: % MAO-A inhibition (inhibition of [11C]clorgyline binding, λk3), multi-dose 40 mg BID, 10 h, single subject value): 27.3%
% MAO-A inhibition (inhibition of [11C]clorgyline binding, λk3) ([3]; single dose 20 mg, n = 2, 2 h after CX157): 18.5 ± 10.6%
% MAO-A inhibition (inhibition of [11C]clorgyline binding, λk3) ([3]; single dose 20 mg, n = 2, 5 h after CX157): 18.8 ± 6.7%
% MAO-A inhibition (inhibition of [11C]clorgyline binding, λk3) ([3]; single dose 20 mg, n = 2, 12 h after CX157): 12.4 ± 10.8%
% MAO-A inhibition (inhibition of [11C]clorgyline binding, λk3) ([3]; single dose 40 mg, n = 3, 2 h after CX157): 54.7 ± 8.9%
% MAO-A inhibition (inhibition of [11C]clorgyline binding, λk3) ([3]; single dose 40 mg, n = 3, 12 h after CX157): 6.8 ± 14.6%
% MAO-A inhibition (inhibition of [11C]clorgyline binding, λk3) ([3]; single dose 40 mg, n = 3, 24 h after CX157): −1.8 ± 0.7%
% MAO-A inhibition (inhibition of [11C]clorgyline binding, λk3) ([3]; single dose 40 mg, 5 h after CX157, single subject value): 34.5%
% MAO-A inhibition (inhibition of [11C]clorgyline binding, λk3) ([3]; single dose 40 mg, 8 h after CX157, single subject value): 6.5%
% MAO-A inhibition (inhibition of [11C]clorgyline binding, λk3) ([3]; single dose 60 mg, n = 3, 5 h after CX157): 31.6 ± 27.4%
% MAO-A inhibition (inhibition of [11C]clorgyline binding, λk3) ([3]; single dose 60 mg, n = 3, 8 h after CX157): 23.4 ± 30.0%
% MAO-A inhibition (inhibition of [11C]clorgyline binding, λk3) ([3]; single dose 60 mg, n = 3, 12 h after CX157): 17.6 ± 17.9%
% MAO-A inhibition (inhibition of [11C]clorgyline binding, λk3) ([3]; single dose 80 mg, n = 4, 2 h after CX157): 72.3 ± 8.7%
% MAO-A inhibition (inhibition of [11C]clorgyline binding, λk3) ([3]; single dose 80 mg, n = 4, 5 h after CX157): 48.6 ± 12.1%
% MAO-A inhibition (inhibition of [11C]clorgyline binding, λk3) ([3]; single dose 80 mg, n = 4, 8 h after CX157): 30.4 ± 8.9%
% MAO-A inhibition (inhibition of [11C]clorgyline binding, λk3) ([3]; single dose 80 mg, 12 h after CX157, single subject value): 43.1%
peak inhibition of [11C]clorgyline binding ([3]; single doses, all dose groups except 20 mg, 2-h time point): 47–72%
overall incidence of AEs [4]: 13.3%
serious adverse events or deaths [4]: No serious adverse events (AEs) or deaths occurred
concentration at 2 h ([5]; male, human, plasma, 20 mg, Average plasma CX157, single dose 20 mg, n = 2, 2 h): 18.5 ± 3.3 ng/mL
concentration at 5 h ([5]; male, human, plasma, 20 mg, Average plasma CX157, single dose 20 mg, n = 2, 5 h): 18.8 ± 1.1 ng/mL
concentration at 12 h ([5]; male, human, plasma, 20 mg, Average plasma CX157, single dose 20 mg, n = 2, 12 h): 12.4 ± 0.7 ng/mL
concentration at 2 h ([5]; male, human, plasma, 40 mg, Average plasma CX157, multi-dose 40 mg BID, n = 3, 2 h): 48.3 ± 11.3 ng/mL
concentration at 5 h ([5]; male, human, plasma, 40 mg, Average plasma CX157, multi-dose 40 mg BID, n = 3, 5 h): 34.1 ± 5.8 ng/mL
concentration at 8 h ([5]; male, human, plasma, 40 mg, Average plasma CX157, multi-dose 40 mg BID, n = 3, 8 h): 32.2 ± 4.4 ng/mL
concentration at 12 h ([5]; male, human, plasma, 40 mg, Average plasma CX157, multi-dose 40 mg BID, n = 3, 12 h): 23.1 ± 1.4 ng/mL
concentration at 2 h ([5]; male, human, plasma, 40 mg, Average plasma CX157, single dose 40 mg, n = 3, 2 h): 54.7 ± 18.5 ng/mL
concentration at 12 h ([5]; male, human, plasma, 40 mg, Average plasma CX157, single dose 40 mg, n = 3, 12 h): 6.8 ± 1.5 ng/mL
concentration at 2 h ([5]; male, human, plasma, 60 mg, Average plasma CX157, single dose 60 mg, n = 3, 2 h): 46.8 ± 84.4 ng/mL
concentration at 5 h ([5]; male, human, plasma, 60 mg, Average plasma CX157, single dose 60 mg, n = 3, 5 h): 31.6 ± 37.4 ng/mL
concentration at 8 h ([5]; male, human, plasma, 60 mg, Average plasma CX157, single dose 60 mg, n = 3, 8 h): 23.4 ± 8 ng/mL
concentration at 12 h ([5]; male, human, plasma, 60 mg, Average plasma CX157, single dose 60 mg, n = 3, 12 h): 17.6 ± 6.6 ng/mL
concentration at 2 h ([5]; male, human, plasma, 80 mg, Average plasma CX157, single dose 80 mg, n = 4, 2 h): 72.3 ± 58.8 ng/mL
concentration at 5 h ([5]; male, human, plasma, 80 mg, Average plasma CX157, single dose 80 mg, n = 4, 5 h): 48.6 ± 25 ng/mL
concentration at 8 h ([5]; male, human, plasma, 80 mg, Average plasma CX157, single dose 80 mg, n = 4, 8 h): 30.4 ± 5.2 ng/mL
half-life ([5]; male, human, plasma, po): 6 ± 3.4 h
Plasma CX157 range ([5]; multi-dose 40 mg BID, n = 3, 2 h): 24.5 to 45 ng/mL
Plasma CX157 range ([5]; multi-dose 40 mg BID, n = 3, 5 h): 13.1 to 24.7 ng/mL
Plasma CX157 range ([5]; multi-dose 40 mg BID, n = 3, 8 h): 10.8 to 19.5 ng/mL
Plasma CX157 range ([5]; multi-dose 40 mg BID, n = 3, 12 h): 9 to 11 ng/mL
Plasma CX157 ([5]; multi-dose 40 mg BID, 10 h): 6.9 ng/mL
Plasma CX157 range ([5]; single dose 20 mg, n = 2, 2 h): 3.8 to 8.1 ng/mL
Plasma CX157 range ([5]; single dose 20 mg, n = 2, 5 h): 1.9 to 3.4 ng/mL
Plasma CX157 range ([5]; single dose 20 mg, n = 2, 12 h): 0.6 to 1.6 ng/mL
Plasma CX157 range ([5]; single dose 40 mg, n = 3, 2 h): 18.4 to 55.1 ng/mL
Plasma CX157 range ([5]; single dose 40 mg, n = 3, 12 h): 0.9 to 3.9 ng/mL
Average plasma CX157 ([5]; single dose 40 mg, n = 3, 24 h): 2.8 ± 1.3 ng/mL
Plasma CX157 range ([5]; single dose 40 mg, n = 3, 24 h): 1.8 to 3.7 ng/mL
Plasma CX157 ([5]; single dose 40 mg, 5 h): 8.4 ng/mL
Plasma CX157 ([5]; single dose 40 mg, 8 h): 1.8 ng/mL
Plasma CX157 range ([5]; single dose 60 mg, n = 3, 2 h): 7.6 to 158 ng/mL
Plasma CX157 range ([5]; single dose 60 mg, n = 3, 5 h): 3.6 to 67.3 ng/mL
Plasma CX157 range ([5]; single dose 60 mg, n = 3, 8 h): 3.4 to 14.7 ng/mL
Plasma CX157 range ([5]; single dose 60 mg, n = 3, 12 h): 1.8 to 11.1 ng/mL
Plasma CX157 range ([5]; single dose 80 mg, n = 4, 2 h): 70.7 to 183 ng/mL
Plasma CX157 range ([5]; single dose 80 mg, n = 4, 5 h): 13.5 to 70.2 ng/mL
Plasma CX157 range ([5]; single dose 80 mg, n = 4, 8 h): 5.7 to 15.4 ng/mL
Plasma CX157 ([5]; single dose 80 mg, 12 h): 16.6 ng/mL

CCS(=O)(=O)Oc1ccc2c(C)c(C)c(=O)oc2c1 [esuprone]
correlation between plasma drug levels and brain MAO-A inhibition [6]: no correlation observed
